Results reported in patent US5217960A, “Erythromycin derivatives” (priority 1991, dated 1993).
≈ marks a conversion by molar mass, not a printed value. Where two headings read alike, the source gives them in different places.

What was measured:
Assay type in all cases: cell-based
[1] = tested on: ESCHERICHIA COLI H560; assay: In vitro antibacterial activity, agar dilution MIC
[2] = tested on: STAPHYLOCOCCUS AUREUS 1775; assay: In vitro antibacterial activity, agar dilution MIC; conditions: S. aureus 1775, BHI agar, 35-37° C., 20 to 24 hours, read-out: MIC
[3] = tested on: STREPTOCOCCUS PYOGENES 2548 INDUC; assay: In vitro antibacterial activity, agar dilution MIC; conditions: 24 h
[4] = tested on: STREPTOCOCCUS PYOGENES 930 CONST; assay: In vitro antibacterial activity, agar dilution MIC; conditions: S. pyogenes 930 CONST, BHI agar, 35-37° C., 20 to 24 hours, read-out: MIC
[5] = tested on: STAPHYLOCOCCUS AUREUS NCTC 10649; assay: In vitro antibacterial activity, agar dilution MIC; conditions: NCTC10649, 24 h
[6] = tested on: ESCHERICHIA COLI JUHL; assay: microbe, parasite or virus in culture
[7] = tested on: STAPHYLOCOCCUS AUREUS A5177; assay: In vitro antibacterial activity, agar dilution MIC
[8] = tested on: ACINETOBACTER CALCOACETICUS CMX 669; assay: In vitro antibacterial activity, agar dilution MIC; conditions: A. calcoaceticus CMX 669, BHI agar, 35-37° C., 20 to 24 hours
[9] = tested on: ENTEROBACTER AEROGENES ATCC 13048; assay: In vitro antibacterial activity, agar dilution MIC; conditions: Klebsiella aerogenes
[10] = tested on: ESCHERICHIA COLI KNK 437; assay: microbe, parasite or virus in culture; conditions: E. coli KNK 437, BHI agar, 35-37° C., 20 to 24 hours
[11] = tested on: ESCHERICHIA COLI DC-2; assay: In vitro antibacterial activity, agar dilution MIC
[12] = tested on: PSEUDOMONAS AERUGINOSA K799/WT; assay: In vitro antibacterial activity, agar dilution MIC; conditions: P. aeruginosa K799/WT, BHI agar, 35-37° C., 20 to 24 hours
[13] = tested on: PROVIDENCIA STUARTII CMX 640; assay: microbe, parasite or virus in culture
[14] = tested on: ESCHERICHIA COLI SS; assay: In vitro antibacterial activity, agar dilution MIC; conditions: 24 h
[15] = tested on: STAPHYLOCOCCUS AUREUS ATCC 6538P; assay: In vitro antibacterial activity, agar dilution MIC; conditions: ATCC6538P
[16] = tested on: STAPHYLOCOCCUS AUREUS 45; assay: In vitro antibacterial activity, agar dilution MIC; conditions: 24 h
[17] = tested on: EN[…] ATCC 8043; assay: In vitro antibacterial activity, agar dilution MIC; conditions: Enterococcus faecium, ATCC8043, 24 h
Method: (§1) Representative compounds of the present invention were assayed in vitro for antibacterial activity as follows: Twelve petri dishes containing successive aqueous dilutions of the test compound mixed with 10 ml of sterilized Brain Heart Infusion (BHI) agar (Difco 0418-01-5) were prepared. Each plate was inoculated with 1:100 (or 1:10 for slow-growing strains, such as Micrococcus and Streptococcus) dilutions of up to 32 different microorganisms, using a Steers replicator block. The inoculated plates were incubated at 35°-37° C. for 20 to 24 hours. In addition, a control plate, using BHI agar containing no test compound, was prepared and incubated at the beginning and end of each test.
(§2) An additional plate containing a compound having known susceptibility patterns for the organisms being tested and belonging to the same antibiotic class as the test compound was also prepared and incubated as a further control, as well as to provide test-to-test comparability. Erythromycin A was used for this purpose.
(§3) After incubation, each disk was read. The minimum inhibitory concentration (MIC) was defined as the lowest concentration of drug yielding no growth, a slight haze, or sparsely isolated colonies on the inoculum spot as compared to the growth control. The results of this assay, shown below in Tables 1 and 2, support the conclusion that the compounds of the invention are effective antibacterial agents.

[18] = tested on: M[…] ATCC 9341; assay: In vitro antibacterial activity, agar dilution MIC; conditions: Micrococcus luteus, ATCC9341, 24 h
Method: as §1, §2, §3

[19] = tested on: PSEUDOMONAS AERUGINOSA K799/61; assay: In vitro antibacterial activity, agar dilution MIC
Method: as §1, §2, §3

[20] = tested on: M[…] ATCC 4698; assay: In vitro antibacterial activity, agar dilution MIC; conditions: Micrococcus luteus, ATCC4698, 24 h
Method: as §1, §2, §3

[21] = tested on: STAPHYLOCOCCUS EPIDERMIDIS 3519; assay: microbe, parasite or virus in culture
[22] = tested on: PSEUDOMONAS AERUGINOSA BMH10; assay: In vitro antibacterial activity, agar dilution MIC
[23] = tested on: STAPHYLOCOCCUS AUREUS CMX 553; assay: In vitro antibacterial activity, agar dilution MIC
[24] = tested on: PSEUDOMONAS CEPACIA 296I; assay: In vitro antibacterial activity, agar dilution MIC; conditions: Burkholderia cepacia; P. cepacia 296I; BHI agar, 35-37° C., 20 to 24 hours; read-out: MIC
[25] = tested on: KLEBSIELLA PNEUMONIAE ATCC 8045; assay: In vitro antibacterial activity, agar dilution MIC; conditions: ATCC8045, 24 h
[26] = tested on: PSEUDOMONAS AERUGINOSA A5007; assay: In vitro antibacterial activity, agar dilution MIC; conditions: P. aeruginosa A5007, BHI agar, 35-37° C., 20 to 24 hours
[27] = tested on: STR[…] EES61; assay: In vitro antibacterial activity, agar dilution MIC; conditions: Streptococcus pyogenes, 24 h
Method: as §1, §2
(§4) After incubation, each disk was read. The minimum inhibitory concentration (MIC) was defined as the lowest concentration of drug yielding no growth, a slight haze, or sparsely isolated colonies on the inoculum spot as compared to the growth control.

[28] = tested on: STR[…] 508; assay: In vitro antibacterial activity, agar dilution MIC; conditions: Streptococcus agalactiae, 24 h
Method: as §1, §2, §4

[29] = tested on: STREPTOCOCCUS BOVIS A5169; assay: In vitro antibacterial activity, agar dilution MIC; conditions: 24 h
[30] = tested on: STAPHYLOCOCCUS AUREUS 642A; assay: In vitro antibacterial activity, agar dilution MIC; conditions: 24 h
[31] = E. coli H560, BHI agar, 35-37° C., 20 to 24 hours, read-out: MIC
[32] = E. coli JUHL, BHI agar, 35-37° C., 20 to 24 hours, read-out: MIC
[33] = P. stuartii CMX 640, BHI agar, 35-37° C., 20 to 24 hours
[34] = S. epidermidis 3519, BHI agar, 35-37° C., 20 to 24 hours, read-out: MIC
[35] = P. aeruginosa BMH10, BHI agar, 35-37° C., 20 to 24 hours, read-out: MIC
[36] = S. aureus CMX 553, BHI agar, 35-37° C., 20 to 24 hours, read-out: MIC
[37] = S. aureus A5177, BHI agar, 35-37° C., 20 to 24 hours, read-out: MIC
[38] = ATCC13048, E. aerogenes ATCC 13048, BHI agar, 35-37° C., 20 to 24 hours, read-out: MIC

| SMILES | MIC [1, 31] [µg/mL] | MIC [2] [µg/mL] | MIC [3] [µg/mL] | MIC [4] [µg/mL] | MIC [5] [µg/mL] | MIC [6, 32] [µg/mL] | MIC [8] [µg/mL] | MIC [10] [µg/mL] | MIC ([11]; 24 h) [µg/mL] | MIC [12] [µg/mL] | MIC [14] [µg/mL] | MIC [16] [µg/mL] | MIC [17] [µg/mL] | MIC [18] [µg/mL] | MIC [20] [µg/mL] | MIC [24] [µg/mL] | MIC [25] [µg/mL] | MIC [26] [µg/mL] | MIC [27] [µg/mL] | MIC [28] [µg/mL] | also measured |
| --- | --- | --- | --- | --- | --- | --- | --- | --- | --- | --- | --- | --- | --- | --- | --- | --- | --- | --- | --- | --- | --- |
| CC[C@H]1OC(=O)[C@H](C)[C@@H](O[C@H]2C[C@@](C)(OC)[C@@H](O)[C@H](C)O2)[C@H](C)[C@@H](O[C@@H]2O[C@H](C)C[C@H](N(C)C)[C@H]2O)[C@](C)(O)C[C@@H](C)[C@@H](N(C)C)[C@H](C)[C@@H](O)[C@@]1(O)CN(C)C [Compound 18, (9R)-9,21-di-(N,N-dimethylamino)-9-deoxoerythromycin A] | 3.1 (≈ 3.85 µM) | > 100 | 25 (≈ 31 µM) | > 100 | 1.56 (≈ 1.94 µM) | 12.5 (≈ 15.5 µM) | 12.5 (≈ 15.5 µM) | 12.5 (≈ 15.5 µM) | 6.2 (≈ 7.69 µM) | > 100 | 0.2 (≈ 0.248 µM) | 1.56 (≈ 1.94 µM) | 0.39 (≈ 0.484 µM) | 0.2 (≈ 0.248 µM) | 0.78 (≈ 0.968 µM) | > 100 | 6.2 (≈ 7.69 µM) | > 100 | 0.1 (≈ 0.124 µM) | 0.2 (≈ 0.248 µM) | MIC ([7]; 24 h): 25 µg/mL (≈ 31 µM); MIC ([9]; ATCC13048, 24 h): 25 µg/mL (≈ 31 µM); MIC [13, 33]: > 100 µg/mL; MIC ([15]; 24 h): 1.56 µg/mL (≈ 1.94 µM); MIC ([19]; 24 h): 1.56 µg/mL (≈ 1.94 µM); MIC [21, 34]: 3.1 µg/mL (≈ 3.85 µM); MIC [22, 35]: 100 µg/mL (≈ 124 µM); MIC [23, 36]: 3.1 µg/mL (≈ 3.85 µM) |
| CC[C@H]1OC(=O)[C@H](C)[C@@H](O[C@H]2C[C@@](C)(OC)[C@@H](O)[C@H](C)O2)[C@H](C)[C@@H](O[C@@H]2O[C@H](C)C[C@H](N(C)C)[C@H]2O)[C@](C)(O)C[C@@H](C)[C@@H](N(C)C)[C@H](C)[C@@H](O)[C@@]1(O)CNC [Compound 17, (9R)-9-deoxo-9-(N,N-dimethylamino)-21-(N-methylamino)-erythromycin A] | 12.5 (≈ 15.8 µM) | > 100 | 50 (≈ 63.1 µM) | > 100 | 6.2 (≈ 7.83 µM) | – | 100 (≈ 126 µM) | 25 (≈ 31.6 µM) | 50 (≈ 63.1 µM) | > 100 | 0.78 (≈ 0.985 µM) | 6.2 (≈ 7.83 µM) | 3.1 (≈ 3.91 µM) | 1.56 (≈ 1.97 µM) | 1.56 (≈ 1.97 µM) | > 100 | 50 (≈ 63.1 µM) | > 100 | 0.78 (≈ 0.985 µM) | 1.56 (≈ 1.97 µM) | MIC ([6]; 24 h): 50 µg/mL (≈ 63.1 µM); MIC [7, 37]: > 100 µg/mL; MIC [9, 38]: 100 µg/mL (≈ 126 µM); MIC ([13]; 24 h): > 100 µg/mL; MIC [29]: 0.78 µg/mL (≈ 0.985 µM); MIC ([15]; S. aureus ATCC 6538P, BHI agar, 35-37° C., 20 to 24 hours, read-out: MIC): 12.5 µg/mL (≈ 15.8 µM); MIC ([19]; 24 h): 3.1 µg/mL (≈ 3.91 µM); MIC [21, 34]: 12.5 µg/mL (≈ 15.8 µM); MIC [22, 35]: 100 µg/mL (≈ 126 µM); MIC [23, 36]: 12.5 µg/mL (≈ 15.8 µM) |
| CC[C@H]1OC(=O)[C@H](C)[C@@H](O[C@H]2C[C@@](C)(OC)[C@@H](O)[C@H](C)O2)[C@H](C)[C@@H](O[C@@H]2O[C@H](C)C[C@H](N(C)C)[C@H]2O)[C@](C)(O)C[C@@H](C)[C@@H](N)[C@H](C)[C@@H](O)[C@@]1(O)CNCc1ccccc1 [Compound 14, (9R)-9-amino-21-benzylamino-9-deoxo-erythromycin A] | – | > 100 | 3.1 (≈ 3.69 µM) | > 100 | 3.1 (≈ 3.69 µM) | 100 (≈ 119 µM) | – | 100 (≈ 119 µM) | – | > 100 | 0.78 (≈ 0.928 µM) | 6.2 (≈ 7.38 µM) | 3.1 (≈ 3.69 µM) | 0.78 (≈ 0.928 µM) | 3.1 (≈ 3.69 µM) | > 100 | 50 (≈ 59.5 µM) | > 100 | 0.2 (≈ 0.238 µM) | 0.39 (≈ 0.464 µM) | MIC ([1]; 24 h): 25 µg/mL (≈ 29.8 µM); MIC [7, 37]: > 100 µg/mL; MIC [9, 38]: > 100 µg/mL; MIC ([11]; E. coli DC-2, BHI agar, 35-37° C., 20 to 24 hours, read-out: MIC): 100 µg/mL (≈ 119 µM); MIC [30]: 6.2 µg/mL (≈ 7.38 µM); MIC [13, 33]: > 100 µg/mL; MIC [29]: 0.2 µg/mL (≈ 0.238 µM); MIC ([15]; 24 h): 3.1 µg/mL (≈ 3.69 µM); MIC ([19]; P. aeruginosa K799/61, BHI agar, 35-37° C., 20 to 24 hours, read-out: MIC): 25 µg/mL (≈ 29.8 µM); MIC ([21]; 24 h): 1.56 µg/mL (≈ 1.86 µM); MIC ([22]; 24 h): 50 µg/mL (≈ 59.5 µM); MIC ([23]; 24 h): 6.2 µg/mL (≈ 7.38 µM) |
